{"source": "patent US4256751A", "about": "“Tetrahydroisoquinoline derivatives” (Tanabe Seiyaku Co., Ltd., priority 1978, dated 1981)", "key": {"[1]": {"system": "ADP-induced platelet aggregation", "assay": "Platelet aggregation-inhibiting activity (ADP-induced, diluted platelet-rich plasma)", "type": "cell-based, dog (male beagle)", "conditions": "Canis lupus familiaris, test compound solution 100 μg/ml, added 2 minutes before ADP, beagle PRP, read-out: Platelet aggregation inhibiting activity (percentage inhibition of the second wave of ADP-induced platelet aggregation)", "experimental": "The bottom layer was further centrifuged at 1000×g for 15 minutes to give platelet-poor plasma (PPP) as the supernatant solution."}, "[2]": {"system": "ACE", "assay": "ACE-inhibitory activity in vivo (pressor response to angiotensin I)", "parameters": "species or system rat (normotensive)", "conditions": "0.1 mg/kg intravenously; angiotensin I 300 ng/kg i.v.; anesthetized normotensive rats", "experimental": "Normotensive rats weighing 300-400 g were anesthetized with urethane(1.5 g/kg, s.c.), and angiotensin I (300 ng/kg) was injected into the femoral vein of the rats. The pressor response to angiotensin I was measured with a pressure transducer connected to the carotid artery. Then, a test compound was injected intravenously thereto at a dose of 0.1 mg/kg, and angiotensin I (300 ng/kg) was further injected intravenously at intervals. The ACE-inhibitory activity of the test compound was estimated from the pressor responses to angiotensin I which were obtained before and after intraveous injection of the test compound."}, "[3]": {"system": "spontaneously hypertensive rats (SHR)", "assay": "Hypotensive activity in SHR", "type": "in vivo, rat (SHR)", "conditions": "50 mg/kg orally", "experimental": "A test compound (dose: 50 mg/kg) suspended in an aqueous carboxymethylcellulose solution was administered orally to spotaneously hypertensive rats (SHR) fasted for a day. The systolic blood pressure of the rats was measured by the tail plethysmographic technique (The Journal of Laboratory and Clinic Medicine 78(1971), page 957). The hypotensive activity of the test compound was estimated from the decreased level of blood pressure."}, "[4]": {"system": "mice", "assay": "Oral toxicity in mice", "type": "in vivo", "conditions": "3 g/kg", "description": ". Moreover, the compound (I) of the present invention decreases aggregation of blood platelets and can be used to improve blood flow disturbances or other vascular diseases due to the formation of platelet aggregates (i.e., thrombus). Since the hypertensive disease is largely found in the aged subjects who show an increased tendency to capillary fragility or thrombosis, therefore, the compound (I) of the invention is useful to prevent, in addition to the treatment of hypertension, the genesis of thrombosis and other occlusive vascular diseases of such subjects. Further, the toxicity of the compound (I) is considerably low. […]"}}, "data": [{"compound": "C[C@H](CS)C(=O)N1Cc2ccccc2C[C@H]1C(=O)O", "note": "[(3S)-2-[(2S)-3-mercapto-2-methyl-propionyl]-1,2,3,4-tetrahydroisoquinoline-3-carboxylic acid]", "values": [{"measurement": "inhibition at 100 µg/mL", "setting": "[1]", "value": 86, "unit": "%"}, {"measurement": "ACE-inhibitory activity in vivo (percentage inhibition of ACE activity in vivo)", "setting": "[2]", "value": 90, "unit": "%"}, {"measurement": "Hypotensive activity in SHR: Duration of action", "setting": "[3]", "value": "> 6", "unit": "h"}, {"measurement": "Hypotensive activity in SHR: Decrease in blood pressure", "setting": "[3]; systolic, tail plethysmographic", "value": "ca. 20%"}, {"measurement": "mortality five days after oral administration", "setting": "[4]", "value": "no mouse died"}]}]}
